This is an account of results in ChEMBL document CHEMBL1275569, “Plasmid-mediated 16S rRNA methylases among extended-spectrum beta-lactamase-producing Enterobacteriaceae isolates” (2008).

The subject of assay [1] is Escherichia coli. The assay is described as follows: Antimicrobial activity against rmtB positive Escherichia coli VOG producing beta lactamase CTX-M-14 by Etest method. In kind it is functional.
Assay [2] deals with Escherichia coli. The experiment in a line: Antimicrobial activity against Escherichia coli TOP10 harboring plasmid VOG2 expressing CTX-M-14 and AAC(6 )-Ib gene by Etest method. The format is functional.
Assay [3] concerns Escherichia coli. The assay is described as follows: Antimicrobial activity against beta lactamase CTX-M-14 producing Escherichia coli TOP10 harboring plasmid COP2 by Etest method. The format is functional.
Assay [4] has as its system Escherichia coli. The experiment in a line: Antimicrobial activity against armA positive Escherichia coli MEZ producing beta lactamase CTX-M-3 by Etest method. In kind it is functional.
For assay [5], the system named is Escherichia coli. The experiment in a line: Antimicrobial activity against armA positive Escherichia coli TOP10 producing beta lactamase CTX-M-3 with plasmid MEZ by Etest method. In kind it is functional.
Another assay deals with Enterobacter cloacae. The assay is described as follows: Antimicrobial activity against armA positive Enterobacter cloacae BEH producing beta lactamase CTX-M-3 by Etest method. The format is functional.
The subject of assay [6] is Escherichia coli. The assay is described as follows: Antimicrobial activity against armA positive Escherichia coli TOP10 producing beta lactamase CTX-M-3 with plasmid BEH by Etest method. The format is functional.
The test system of a further assay is Klebsiella pneumoniae. The assay is described as follows: Antimicrobial activity against armA positive Klebsiella pneumoniae DU producing beta lactamase CTX-M-3 by Etest method. The format is functional.
In assay [7] the test system is Escherichia coli. The experiment in a line: Antimicrobial activity against armA positive Escherichia coli TOP10 producing beta lactamase CTX-M-3 with plasmid DU by Etest method. In kind it is functional.
For assay [8], the system named is Escherichia coli. The experiment in a line: Antimicrobial activity against Escherichia coli TOP10 by Etest method. The format is functional.
Assay [9] relates to Escherichia coli. The experiment in a line: Antimicrobial activity against armA positive Escherichia coli COP producing beta lactamase CTX-M-14 by Etest method.
Assay [10] has as its system Escherichia coli. The assay is described as follows: Antimicrobial activity against Escherichia coli TOP10 harboring plasmid VOG1 expressing RmtB, TEM-1, and QepA gene by Etest method. In kind it is functional.
Assay [11] deals with Escherichia coli. The assay is described as follows: Antimicrobial activity against armA positive Escherichia coli TOP10 harboring plasmid COP1 by Etest method. The format is functional.

≈ marks a conversion by molar mass, not a printed value. Where only a bound is given, the exact number is not on record here.

By MIC is commonly meant the smallest concentration in the dilution series that meets the test's criterion for growth inhibition. Take `NCC[C@H](O)C(=O)N[C@@H]1C[C@H](N)[C@@H](O[C@H]2O[C@H](CN)[C@@H](O)[C@H](O)[C@H]2O)[C@H](O)[C@H]1O[C@H]1O[C@H](CO)[C@@H](O)[C@H](N)[C@H]1O` [AMIKACIN]: the MIC is more than 256 µg/mL in the assay with Escherichia coli [1]; 1.5 µg/mL (≈ 2.56 µM) with Escherichia coli [2]; 1 µg/mL (≈ 1.71 µM) in the assay on Escherichia coli [3]; more than 256 µg/mL against Escherichia coli [4]; more than 256 µg/mL against Escherichia coli [5]; more than 256 µg/mL in the assay on Enterobacter cloacae. Also, the MIC was more than 256 µg/mL against Escherichia coli [6]; more than 256 µg/mL against Klebsiella pneumoniae; more than 256 µg/mL with Escherichia coli [7]; 1 µg/mL (≈ 1.71 µM) with Escherichia coli [8]; more than 256 µg/mL in the assay on Escherichia coli [9].

As for `CO/N=C(\C(=O)N[C@@H]1C(=O)N2C(C(=O)O)=C(COC(C)=O)CS[C@H]12)c1csc(N)n1` [CEFOTAXIME], the minimum inhibitory concentration (MIC) against Escherichia coli [1] is more than 32 µg/mL; in the assay on Escherichia coli [10] it was 0.047 µg/mL (≈ 0.103 µM); against Escherichia coli [11], 0.047 µg/mL (≈ 0.103 µM); with Escherichia coli [3], 8 µg/mL (≈ 17.6 µM); with Escherichia coli [4], more than 32 µg/mL; in the assay with Escherichia coli [5], more than 32 µg/mL. Also, the MIC against Enterobacter cloacae is more than 32 µg/mL; against Escherichia coli [6], more than 32 µg/mL; in the assay with Klebsiella pneumoniae, more than 32 µg/mL; with Escherichia coli [7], more than 32 µg/mL; against Escherichia coli [8] it was 0.047 µg/mL (≈ 0.103 µM); against Escherichia coli [9], more than 32 µg/mL.

Take `CC(C)(O/N=C(\C(=O)N[C@@H]1C(=O)N2C(C(=O)[O-])=C(C[n+]3ccccc3)CS[C@H]12)c1csc(N)n1)C(=O)O` [CEFTAZIDIME]: the minimum inhibitory concentration (MIC) against Escherichia coli [1] was 6 µg/mL (≈ 11 µM); with Escherichia coli [10] it was 0.38 µg/mL (≈ 0.695 µM); with Escherichia coli [2], 2 µg/mL (≈ 3.66 µM); in the assay with Escherichia coli [11] it was 0.38 µg/mL (≈ 0.695 µM); with Escherichia coli [3] it was 1 µg/mL (≈ 1.83 µM); against Escherichia coli [4], 3 µg/mL (≈ 5.49 µM). For the same compound, the MIC was 3 µg/mL (≈ 5.49 µM) in the assay with Escherichia coli [5]; 16 µg/mL (≈ 29.3 µM) against Enterobacter cloacae; 8 µg/mL (≈ 14.6 µM) in the assay on Escherichia coli [6]; 2 µg/mL (≈ 3.66 µM) against Klebsiella pneumoniae; 2 µg/mL (≈ 3.66 µM) against Escherichia coli [7]; 0.38 µg/mL (≈ 0.695 µM) in the assay on Escherichia coli [8]. The MIC with Escherichia coli [9] stood at 1 µg/mL (≈ 1.83 µM).

Turning to `O=C(O)c1cn(C2CC2)c2cc(N3CCNCC3)c(F)cc2c1=O` [CIPROFLOXACIN], the minimal inhibitory concentration (MIC) is more than 32 µg/mL against Escherichia coli [1]; more than 32 µg/mL with Escherichia coli [4]; less than 0.002 µg/mL against Escherichia coli [5]; less than 0.002 µg/mL against Escherichia coli [6]; 0.125 µg/mL (≈ 0.377 µM) in the assay with Klebsiella pneumoniae; less than 0.002 µg/mL against Escherichia coli [7]. Moreover, the MIC against Escherichia coli [8] was less than 0.002 µg/mL; against Escherichia coli [9] it was more than 32 µg/mL.

Take `C[C@@H](O)[C@H]1C(=O)N2C(C(=O)O)=C(SCCNC=N)C[C@H]12` [IMIPENEM ANHYDROUS]: the minimal inhibitory concentration (MIC) in the assay with Escherichia coli [1], with Escherichia coli [10], in the assay on Escherichia coli [2], in the assay on Escherichia coli [11], with Escherichia coli [3] and in the assay on Escherichia coli [4] was 0.19 µg/mL (≈ 0.635 µM) in each case. Moreover, the MIC in the assay with Escherichia coli [5], in the assay with Enterobacter cloacae, with Escherichia coli [6], in the assay with Klebsiella pneumoniae, in the assay with Escherichia coli [7] and against Escherichia coli [8] was 0.19 µg/mL (≈ 0.635 µM) throughout. The compound further gave an MIC in the assay on Escherichia coli [9] of 0.19 µg/mL (≈ 0.635 µM).

As to `CCN[C@@H]1C[C@H](N)[C@@H](O[C@H]2OC(CN)=CC[C@H]2N)[C@H](O)[C@H]1O[C@H]1OC[C@](C)(O)[C@H](NC)[C@H]1O` [NETILMICIN], the minimum inhibitory concentration (MIC) was more than 256 µg/mL in the assay on Escherichia coli [1]; 1.5 µg/mL (≈ 3.15 µM) against Escherichia coli [2]; 0.125 µg/mL (≈ 0.263 µM) against Escherichia coli [3]; more than 256 µg/mL in the assay on Escherichia coli [4]; more than 256 µg/mL in the assay with Escherichia coli [5]; more than 256 µg/mL against Enterobacter cloacae. Also, the MIC against Escherichia coli [6] was more than 256 µg/mL; with Klebsiella pneumoniae, more than 256 µg/mL; against Escherichia coli [7] it was more than 256 µg/mL; in the assay with Escherichia coli [8], 0.25 µg/mL (≈ 0.526 µM); against Escherichia coli [9], more than 256 µg/mL.

As to `CCn1cc(C(=O)O)c(=O)c2cc(F)c(N3CCNCC3)cc21` [NORFLOXACIN], the MIC was more than 256 µg/mL in the assay on Escherichia coli [1]; 0.032 µg/mL (≈ 0.1 µM) in the assay on Escherichia coli [10]; less than 0.016 µg/mL with Escherichia coli [2]; less than 0.016 µg/mL against Escherichia coli [11]; less than 0.016 µg/mL against Escherichia coli [3]; more than 256 µg/mL against Escherichia coli [4]. Moreover, the minimum inhibitory concentration (MIC) in the assay with Escherichia coli [5] was 0.016 µg/mL (≈ 0.0501 µM); against Enterobacter cloacae it was 1 µg/mL (≈ 3.13 µM); with Escherichia coli [6] it was 0.016 µg/mL (≈ 0.0501 µM); in the assay on Klebsiella pneumoniae, 0.75 µg/mL (≈ 2.35 µM); in the assay with Escherichia coli [7], 0.016 µg/mL (≈ 0.0501 µM); in the assay with Escherichia coli [8], less than 0.016 µg/mL. In the assay on Escherichia coli [9], the MIC is more than 256 µg/mL.

With `NC[C@H]1O[C@H](O[C@H]2[C@H](O)[C@@H](O[C@H]3O[C@H](CO)[C@@H](O)[C@H](N)[C@H]3O)[C@H](N)C[C@@H]2N)[C@H](N)C[C@@H]1O` [TOBRAMYCIN], the MIC was more than 256 µg/mL in the assay on Escherichia coli [1]; 3 µg/mL (≈ 6.42 µM) against Escherichia coli [2]; 0.19 µg/mL (≈ 0.406 µM) with Escherichia coli [3]; more than 256 µg/mL with Escherichia coli [4]; more than 256 µg/mL in the assay with Escherichia coli [5]; more than 256 µg/mL in the assay with Enterobacter cloacae. Also, the MIC in the assay with Escherichia coli [6] was more than 256 µg/mL; against Klebsiella pneumoniae, more than 256 µg/mL; with Escherichia coli [7], more than 256 µg/mL; with Escherichia coli [8], 0.38 µg/mL (≈ 0.813 µM); against Escherichia coli [9], more than 256 µg/mL.

For the compound GENTAMICIN, the MIC is more than 256 µg/mL with Escherichia coli [1]; more than 256 µg/mL in the assay with Escherichia coli [10]; 0.25 µg/mL in the assay with Escherichia coli [2]; more than 256 µg/mL in the assay with Escherichia coli [11]; 0.125 µg/mL against Escherichia coli [3]; more than 256 µg/mL in the assay with Escherichia coli [4]. Also, the MIC in the assay on Escherichia coli [5] is more than 256 µg/mL; in the assay on Enterobacter cloacae it was more than 256 µg/mL; against Escherichia coli [6], more than 256 µg/mL; in the assay on Klebsiella pneumoniae, more than 256 µg/mL; with Escherichia coli [7], more than 256 µg/mL; against Escherichia coli [8], 0.25 µg/mL.
